Organism: Rattus norvegicus
Assay: Open TG-GATES - Regimen: Single
Assay type: toxicity, organism-based, Sprague-Dawley
Set-up: regimen Single, gender Male, age 6 weeks
Details: in vivo, po, 1000 mg/kg, route gavage, dose level Middle; for APTT / Bas / Eos / Fbg / Hb / Ht / Lym / MCH / MCHC / MCV / Mono / Neu / PT / Plat / RBC / Ret / WBC: tissue Blood; for KIDNEY_L / KIDNEY_R / KIDNEY_TOTAL: tissue Kidney; for LIVER: tissue Liver; for A/G / ALP / ALT / AST / BUN / CRE / Ca / Cl / DBIL / GLC / IP / K / LDH / Na / PL / RALB / TBIL / TC / TG / TP / gamma-GTP: tissue Plasma

COc1ccc(O)c(C(C)(C)C)c1.COc1ccc(O)cc1C(C)(C)C [BUTYLATED HYDROXYANISOLE]
TERMINAL_BW (3 h): 206 g
APTT (3 h): 14.7 s
Bas (3 h): 0.2%
Eos (3 h): 0.5%
Fbg (3 h): 270.8 mg/dL
Hb (3 h): 13.5 g/dL
Ht (3 h): 39.4%
Lym (3 h): 79.2%
MCH (3 h): 20.8 pg
MCHC (3 h): 34.3%
MCV (3 h): 60.8 fL
Mono (3 h): 1.9%
Neu (3 h): 17.3%
PT (3 h): 11.6 s
Plat (3 h): 142.9 x10_4/uL
RBC (3 h): 649 x10_4/ul
Ret (3 h): 7.8%
WBC (3 h): 77.2 x10_2/uL
KIDNEY_L (3 h): 0.9 g
KIDNEY_R (3 h): 0.9 g
KIDNEY_TOTAL (3 h): 1.8 g
LIVER (3 h): 8.6 g
A/G (3 h): 0.8
ALP (3 h): 1827.4 IU/L
ALT (3 h): 53.4 IU/L
AST (3 h): 77.8 IU/L
BUN (3 h): 10.6 mg/dL
CRE (3 h): 0.2 mg/dL
Ca (3 h): 11.1 mg/dL
Cl (3 h): 103.6 meq/L
DBIL (3 h): 0.028 mg/dL
GLC (3 h): 179.2 mg/dL
IP (3 h): 10.3 mg/dL
K (3 h): 3.5 meq/L
LDH (3 h): 60.8 IU/L
Na (3 h): 142.6 meq/L
PL (3 h): 150.6 mg/dL
RALB (3 h): 2.6 g/dL
TBIL (3 h): 0.084 mg/dL
TC (3 h): 85.2 mg/dL
TG (3 h): 76.4 mg/dL
TP (3 h): 5.8 g/dL
gamma-GTP (3 h): 1 IU/L
TERMINAL_BW (6 h): 201.1 g
APTT (6 h): 15.6 s
Bas (6 h): 0.2%
Eos (6 h): 0.8%
Fbg (6 h): 279.6 mg/dL
Hb (6 h): 13.9 g/dL
Ht (6 h): 40.4%
Lym (6 h): 72.6%
MCH (6 h): 21.2 pg
MCHC (6 h): 34.3%
MCV (6 h): 61.8 fL
Mono (6 h): 1.6%
Neu (6 h): 24.1%
PT (6 h): 12.7 s
Plat (6 h): 136.4 x10_4/uL
RBC (6 h): 654.6 x10_4/ul
Ret (6 h): 7.3%
WBC (6 h): 78.7 x10_2/uL
KIDNEY_L (6 h): 0.9 g
KIDNEY_R (6 h): 0.8 g
KIDNEY_TOTAL (6 h): 1.7 g
LIVER (6 h): 7.5 g
A/G (6 h): 0.9
ALP (6 h): 1472.6 IU/L
ALT (6 h): 49.4 IU/L
AST (6 h): 74 IU/L
BUN (6 h): 9.6 mg/dL
CRE (6 h): 0.2 mg/dL
Ca (6 h): 10.9 mg/dL
Cl (6 h): 108.4 meq/L
DBIL (6 h): 0.034 mg/dL
GLC (6 h): 166 mg/dL
IP (6 h): 9.8 mg/dL
K (6 h): 4 meq/L
LDH (6 h): 54.8 IU/L
Na (6 h): 142.6 meq/L
PL (6 h): 139.4 mg/dL
RALB (6 h): 2.6 g/dL
TBIL (6 h): 0.09 mg/dL
TC (6 h): 81.4 mg/dL
TG (6 h): 68.6 mg/dL
TP (6 h): 5.7 g/dL
gamma-GTP (6 h): 1 IU/L
TERMINAL_BW (9 h): 199.9 g
APTT (9 h): 16.6 s
Bas (9 h): 0.2%
Eos (9 h): 0.9%
Fbg (9 h): 285 mg/dL
Hb (9 h): 13.6 g/dL
Ht (9 h): 39.7%
Lym (9 h): 71.9%
MCH (9 h): 21.1 pg
MCHC (9 h): 34.4%
MCV (9 h): 61.6 fL
Mono (9 h): 1.6%
Neu (9 h): 24.9%
PT (9 h): 13.2 s
Plat (9 h): 138.7 x10_4/uL
RBC (9 h): 643.8 x10_4/ul
Ret (9 h): 7.6%
WBC (9 h): 65.3 x10_2/uL
KIDNEY_L (9 h): 0.9 g
KIDNEY_R (9 h): 0.8 g
KIDNEY_TOTAL (9 h): 1.7 g
LIVER (9 h): 7.5 g
A/G (9 h): 0.8
ALP (9 h): 1561.2 IU/L
ALT (9 h): 41.6 IU/L
AST (9 h): 72.8 IU/L
BUN (9 h): 7.6 mg/dL
CRE (9 h): 0.2 mg/dL
Ca (9 h): 11 mg/dL
Cl (9 h): 107.8 meq/L
DBIL (9 h): 0.03 mg/dL
GLC (9 h): 154.8 mg/dL
IP (9 h): 10.3 mg/dL
K (9 h): 4 meq/L
LDH (9 h): 51.4 IU/L
Na (9 h): 142.8 meq/L
PL (9 h): 135.2 mg/dL
RALB (9 h): 2.7 g/dL
TBIL (9 h): 0.09 mg/dL
TC (9 h): 78.2 mg/dL
TG (9 h): 44.6 mg/dL
TP (9 h): 5.9 g/dL
gamma-GTP (9 h): 0.8 IU/L
TERMINAL_BW (24 h): 209.5 g
APTT (24 h): 16.1 s
Bas (24 h): 0.2%
Eos (24 h): 0.4%
Fbg (24 h): 257 mg/dL
Hb (24 h): 13.5 g/dL
Ht (24 h): 39.5%
Lym (24 h): 79.9%
MCH (24 h): 20.8 pg
MCHC (24 h): 34.1%
MCV (24 h): 61 fL
Mono (24 h): 2.3%
Neu (24 h): 16.1%
PT (24 h): 12.4 s
Plat (24 h): 150.2 x10_4/uL
RBC (24 h): 647.4 x10_4/ul
Ret (24 h): 6.3%
WBC (24 h): 89 x10_2/uL
KIDNEY_L (24 h): 0.9 g
KIDNEY_R (24 h): 0.9 g
KIDNEY_TOTAL (24 h): 1.9 g
LIVER (24 h): 9.4 g
A/G (24 h): 0.9
ALP (24 h): 1827.8 IU/L
ALT (24 h): 46.2 IU/L
AST (24 h): 75.8 IU/L
BUN (24 h): 12.4 mg/dL
CRE (24 h): 0.2 mg/dL
Ca (24 h): 11.4 mg/dL
Cl (24 h): 107.8 meq/L
DBIL (24 h): 0.046 mg/dL
GLC (24 h): 156.4 mg/dL
IP (24 h): 8.3 mg/dL
K (24 h): 4.3 meq/L
LDH (24 h): 72 IU/L
Na (24 h): 142.8 meq/L
PL (24 h): 149 mg/dL
RALB (24 h): 2.7 g/dL
TBIL (24 h): 0.098 mg/dL
TC (24 h): 84.2 mg/dL
TG (24 h): 236.8 mg/dL
TP (24 h): 5.8 g/dL
gamma-GTP (24 h): 1 IU/L

Source: ChEMBL document CHEMBL3885861, “Open TG-GATES”
